The values below come from US20110306597A1, “Nicotinamide Derivatives” (priority 2008, published 2011).

As a reminder, the IC50 is the concentration that inhibits the measured activity by half.

human recombinant H-PGDS, sequence (O60760 whole entry): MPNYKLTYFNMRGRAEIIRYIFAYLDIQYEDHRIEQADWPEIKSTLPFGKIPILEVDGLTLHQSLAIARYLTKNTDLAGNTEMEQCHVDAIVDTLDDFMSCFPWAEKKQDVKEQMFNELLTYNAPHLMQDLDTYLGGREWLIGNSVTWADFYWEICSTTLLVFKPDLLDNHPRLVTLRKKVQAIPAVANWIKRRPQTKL

The assay deals with human recombinant H-PGDS (Homo sapiens, UniProt O60760). Description: Fluorescence Intensity h-PGDS TBA Enzyme Assay. The settings on record: 1:175,000 human recombinant H-PGDS, highest inhibitor concentration typically 1 μM. It is filed as biochemical. The method, then:
Fluorescence Intensity h-PGDSTBA Enzyme Assay
Prostaglandin D Synthase (PGDS) converts the substrate prostaglandin H2 (PGH2) to prostaglandin D2. The depletion of PGH2 was measured via an Fe(II) reduction of the remaining PGH2 to malondialdehyde (MDA) and 12-HHT. The enzyme assay is based on the quantitative formation of a fluorescent complex from the non-fluorescent compounds MDA and 2-thiobarbituric acid (TBA), substantially as described in U.S. patent application publication US-2004/152148 by Lombardt.
The enzyme assay (31 μls) contained 100 mM Tris base pH 8.0, 100 μM MgCl2, 0.1 mg/ml IgG Rabbit serum, 5.0 μM PGH2 (Cayman; ethanol solution, #17020), 2.5 mM L-Glutathione (Sigma; reduced form #G4251), 1:175,000 human recombinant H-PGDS (from 1 mg/ml), 0.5% DMSO and inhibitor (varying concentration). Three μls of diluted inhibitor (dissolved in DMSO) was plated into a 384-well assay plate followed by a 25 μl addition of an enzyme solution containing h-PGDS, Tris, MgCl2, IgG and L-Glutathione. After preincubation of inhibitor and enzyme solution for 10 minutes at room temperature, the reaction was initiated with a 3 μl addition of substrate solution in 10 mM HCl. The reaction was terminated after 42 second by the addition (3 μl) of stop buffer containing FeCl2 and citric acid. After addition of 45.5 μls of TBA plates were heated for one hour in a 70 C oven. Plates were cooled at room temperature overnight and read on a plate reader the next day with excitation @ 530 nm and emission @ 565 nm.
IC50's of inhibitors were calculated with a 4-parameter fit using 11 inhibitor concentrations in duplicate with 3-fold serial dilutions. Controls on each plate included no inhibitor (zero % effect) and an inhibitor 10-fold in excess of its' IC50 (100% effect). The highest inhibitor concentration tested was typically 1 μM.
For `O=C(NC[C@@H]1CCCN2CCCC[C@H]12)c1ccc(-c2cccc(F)c2)nc1` [Example 73, 6-(3-Fluorophenyl)-N-[(1S,9aR)-octahydro-2H-quinolizin-1-ylmethyl]nicotinamide], the IC50 was found to be 92.9 nM.

In the case of `CCN1CCC[C@@H]1CNC(=O)c1ccc(-c2cccc(F)c2)nc1` [Example 74, N-{[(2R)-1-Ethylpyrrolidin-2-yl]methyl}-6-(3-fluorophenyl) nicotinamide], the IC50 is 42.3 nM.

Turning to `O=C(NCCC1CCC(=O)N1CCN1CCCC1)c1ccc(-c2cccc(F)c2)nc1` (stereo not drawn) [Example 75, 6-(3-Fluorophenyl)-N-{2-[5-oxo-1-(2-pyrrolidin-1-ylethyl)pyrrolidin-2-yl]ethyl}nicotinamide], the IC50 was found to be 48 nM.

For `O=C(NCCOCc1nc2ccccc2[nH]1)c1ccc(-c2cccc(F)c2)nc1` [Example 76, N-[2-(1H-Benzimidazol-2-ylmethoxy)ethyl]-6-(3-fluorophenyl)nicotinamide], the IC50 was 34.7 nM.

Regarding `CN(C)CCCCCNC(=O)c1ccc(-c2cccc(F)c2)nc1` [Example 77, N-[5-(Dimethylamino)pentyl]-6-(3-fluorophenyl)nicotinamide], the IC50 was 90.3 nM.

In the case of `O=C(N[C@@H](CO)c1ccccc1)c1ccc(-c2cccc(F)c2)nc1` [Example 78, 6-(3-Fluorophenyl)-N-[(1R)-2-hydroxy-1-phenylethyl] nicotinamide], the IC50 was found to be 45 nM. With `O=C(NCC(O)c1ccccc1F)c1ccc(-c2cccc(F)c2)nc1` (stereo not drawn) [Example 79, 6-(3-Fluorophenyl)-N-[2-(2-fluorophenyl)-2-hydroxyethyl]nicotinamide] the figure was 10.3 nM. For `C[C@@H](NC(=O)c1ccc(-c2cccc(F)c2)nc1)[C@@H](O)c1ccccc1` [Example 81, 6-(3-Fluorophenyl)-N-[(1R,2S)-2-hydroxy-1-methyl-2-phenethyl]nicotinamide], the IC50 worked out at 41.2 nM. With `O=C(NCCn1nnc2ccccc21)c1ccc(-c2cccc(F)c2)nc1` [Example 82, N-[2-(1H-Benzotriazol-1-yl)ethyl]-6-(3-fluorophenyl)nicotinamide] the figure was 21.5 nM; with `CC(C)c1noc(CNC(=O)c2ccc(-c3cccc(F)c3)nc2)n1` [Example 83, 6-(3-Fluorophenyl)-N-[(3-isopropyl-1,2,4-oxadiazol-5-yl)methyl]nicotinamide], 72.8 nM. `O=C(NCC1CCCN(c2ncc3c(n2)CCOC3)C1)c1ccc(-c2cccc(F)c2)nc1` (stereo not drawn) [Example 84, N-{[1-(7,8-Dihydro-5H-pyrano[4,3-d]pyrimidin-2-yl)piperidin-3-yl]methyl}-6-(3-fluorophenyl)nicotinamide]: the IC50 was determined as 13.8 nM. Turning to `Cc1ncsc1CCCNC(=O)c1ccc(-c2cccc(F)c2)nc1` [Example 85, 6-(3-Fluorophenyl)-N-[3-(4-methyl-1,3-thiazol-5-yl)propyl]nicotinamide], the IC50 turned out to be 4.88 nM. As to `CCc1nccn1CCCNC(=O)c1ccc(-c2cccc(F)c2)nc1` [Example 86, N-[3-(2-Ethyl-1H-imidazol-1-yl)propyl]-6-(3-fluorophenyl)nicotinamide], the IC50 is 14.8 nM.

With `Cc1noc(CC(NC(=O)c2ccc(-c3cccc(F)c3)nc2)c2ccccc2)n1` (stereo not drawn) [Example 87, 6-(3-Fluorophenyl)-N-[2-(3-methyl-1,2,4-oxadiazol-5-yl)-1-phenylethyl]nicotinamide], the IC50 was 35.8 nM. Regarding `O=C(NCCc1nnc(C2CC2)[nH]1)c1ccc(-c2cccc(F)c2)nc1` [Example 88, N-[2-(5-Cyclopropyl-4H-1,2,4-triazol-3-yl)ethyl]-6-(3-fluorophenyl)nicotinamide], the IC50 was determined as 9.06 nM.

For `CN1CCc2nc(N3CCCC(CNC(=O)c4ccc(-c5cccc(F)c5)nc4)C3)ncc2C1` (stereo not drawn) [Example 89, 6-(3-Fluorophenyl)-N-{[1-(6-methyl-5,6,7,8-tetrahydropyrido[4,3-d]pyrimidin-2-yl)piperidin-3-yl]methyl}nicotinamide], the IC50 is 6.13 nM. On to `CN1CCc2nc(N3CCC(NC(=O)c4ccc(-c5cccc(F)c5)nc4)C3)ncc2C1` (stereo not drawn) [Example 90, 6-(3-Fluorophenyl)-N-[1-(6-methyl-5,6,7,8-tetrahydropyrido[4,3-d]pyrimidin-2-yl)pyrrolidin-3-yl]nicotinamide], for which the IC50 was 0.852 nM.

Take `Cc1noc(C)c1CCCNC(=O)c1ccc(-c2cccc(F)c2)nc1` [Example 91, N-[3-(3,5-Dimethylisoxazol-4-yl)propyl]-6-(3-fluorophenyl)nicotinamide]: the IC50 was 6.44 nM.

For `Cc1ccn(CCNC(=O)c2ccc(-c3cccc(F)c3)nc2)n1` [Example 92, 6-(3-Fluorophenyl)-N-[2-(3-methyl-1H-pyrazol-1-yl)ethyl]nicotinamide], the IC50 came out at 18.7 nM. Regarding `O=C(NCCc1nccs1)c1ccc(-c2cccc(F)c2)nc1` [Example 93, 6-(3-Fluorophenyl)-N-[2-(1,3-thiazol-2-yl)ethyl]nicotinamide], the IC50 was determined as 12.5 nM. With `Cc1cn2cc(CNC(=O)c3ccc(-c4cccc(F)c4)nc3)nc2s1` [Example 94, 6-(3-Fluorophenyl)-N-[(2-methylimidazo[2,1-b][1,3]thiazol-6-yl)methyl]nicotinamide] the figure was 14.8 nM; with `Cc1cc(C)nc(CNC(=O)c2ccc(-c3cccc(F)c3)nc2)n1` [Example 95, N-[(4,6-Dimethylpyrimidin-2-yl)methyl]-6-(3-fluorophenyl)nicotinamide], 95.7 nM; with `Cc1nnc(CNC(=O)c2ccc(-c3cccc(F)c3)nc2)o1` [Example 96, 6-(3-Fluorophenyl)-N-[(5-methyl-1,3,4-oxadiazol-2-yl)methyl]nicotinamide], 175 nM. With `CN1CCCCC1CNC(=O)c1ccc(-c2cccc(F)c2)nc1` (stereo not drawn) [Example 97, 6-(3-Fluorophenyl)-N-[(1-methylpiperidin-2-yl)methyl]nicotinamide] the figure was 153 nM. For the compound `Cc1cc(C(F)(F)F)nc(CNC(=O)c2ccc(-c3cccc(F)c3)nc2)n1` [Example 98, 6-(3-Fluorophenyl)-N-{[4-methyl-6-(trifluoromethyl)pyrimidin-2-yl]methyl}nicotinamide], the IC50 amounted to 146 nM. Regarding `O=C(NCc1nncn1C1CCCCC1)c1ccc(-c2cccc(F)c2)nc1` [Example 99, N-[(4-Cyclohexyl-4H-1,2,4-triazol-3-yl)methyl]-6-(3-fluorophenyl)nicotinamide], the IC50 turned out to be 31.5 nM. Consider `O=C(NCc1cn2ccccc2n1)c1ccc(-c2cccc(F)c2)nc1` [Example 100, 6-(3-Fluorophenyl)-N-(imidazo[1,2-a]pyridin-2-ylmethyl)nicotinamide], for which the IC50 was determined as 12.8 nM. Consider `O=C(NCC1CCCN(c2ncccn2)C1)c1ccc(-c2cccc(F)c2)nc1` (stereo not drawn) [Example 101, 6-(3-Fluorophenyl)-N-[(1-pyrimidin-2-ylpiperidin-3-yl)methyl]nicotinamide], for which the IC50 came to 17.4 nM.

Regarding `CCN(CC)CCCCNC(=O)c1ccc(-c2cccc(F)c2)nc1` [Example 102, N-[4-(Diethylamino)butyl]-6-(3-fluorophenyl)nicotinamide], the IC50 was 86.3 nM. `CN1CCN(CC(CNC(=O)c2ccc(-c3cccc(F)c3)nc2)c2ccccc2)CC1` (stereo not drawn) [Example 103, 6-(3-Fluorophenyl)-N-[3-(4-methylpiperazin-1-yl)-2-phenylpropyl]nicotinamide]: the IC50 turned out to be 316 nM.

Turning to `O=C(NCCNc1nccn2ccnc12)c1ccc(-c2cccc(F)c2)nc1` [Example 104, 6-(3-Fluorophenyl)-N-[2-(imidazo[1,2-a]pyrazin-8-ylamino)ethyl]nicotinamide], the IC50 is 3.43 nM. As to `O=C(NCC1CN(CCc2ccccn2)C(=O)CO1)c1ccc(-c2cccc(F)c2)nc1` (stereo not drawn) [Example 105, 6-(3-Fluorophenyl)-N-{[5-oxo-4-(2-pyridin-2-ylethyl)morpholin-2-yl]methyl}nicotinamide], the IC50 was determined as 58.6 nM. With `CC(C)N1CCN(CCCNC(=O)c2ccc(-c3cccc(F)c3)nc2)C(=O)C1=O` [Example 106, 6-(3-Fluorophenyl)-N-[3-(4-isopropyl-2,3-dioxopiperazin-1-yl)propyl]nicotinamide] the figure was 34.3 nM.

Turning to `O=C(NCC1CCCN(c2nc(C(F)F)cc(=O)[nH]2)C1)c1ccc(-c2cccc(F)c2)nc1` (stereo not drawn) [Example 107, N-({1-[4-(Difluoromethyl)-6-oxo-1,6-dihydropyrimidin-2-yl]piperidin-3-yl}methyl)-6-(3-fluorophenyl)nicotinamide], the IC50 was determined as 15.4 nM.

As to `CC(C)(C)C(=O)CNC(=O)c1ccc(-c2cccc(F)c2)nc1` [Example 108, N-(3,3-Dimethyl-2-oxobutyl)-6-(3-fluorophenyl)nicotinamide], the IC50 worked out at 29.6 nM. With `Cc1cc(=O)[nH]c(N2CCC(CNC(=O)c3ccc(-c4cccc(F)c4)nc3)CC2)n1` [Example 109, 6-(3-Fluorophenyl)-N-{[1-(4-methyl-6-oxo-1,6-dihdyropyrimidin-2-yl)piperidin-4-yl]methyl}nicotinamide], the IC50 turned out to be 34.5 nM.
